Measured values taken from patent publication US20230129034A1, “TREATMENT OF DISEASE WITH ESTERS OF SELECTIVE RXR AGONISTS” (Io Therapeutics, Inc., priority 2017, published 2023).
“Also recorded” adds a separate entry of the source.

Experiments:
[1] = system: demyelination in C57BL/6J mice; assay: Cuprizone/rapamycin (CR) chronic 12-week mouse model of toxic demyelination; format: in vivo; conditions: 12 weeks CR; for # of Myelinated Axons per CC unit (PPD staining, corpus callosum) / % Area of Myelin Cortex (PLP staining) / % Area of Myelin Hippocampus (PLP staining): then 10 mg/kg/d PO daily for 6 weeks, with or without 20 ng/g thyroxine SC
Method: Mice are fed a cuprizone-containing diet and injected with rapamycin daily (CR regimen) for 12 weeks to induce demyelination. One group of animals is sacrificed at 12 weeks to evaluate demyelination. […] At the end of the study, all mice are sacrificed and one or more of the following parameters are determined: (1) PPD (p-phenylenediamine) staining to visualize and quantify myelinated axons in corpus callosum to assess demyelination and remyelination in white matter; (2) myelin proteolipid protein (PLP) immunostaining to visualize and quantify myelin in hippocampus to assess demyelination and remyelination in grey matter (hippocampus); (3) PLP immunostaining to visualize and quantify myelin in cortex to assess demyelination and remyelination in grey matter (cortex); (4) PDGFRα immunostaining to visualize and quantify OPCs in corpus callosum; (5) GSTpi immunostaining to visualize and quantify oligodendrocytes in corpus callosum; (6) Iba1 (ionized calcium-binding adapter molecule 1) and/or Mac-2 (galectin-3) immunostaining to visualize and quantify total and activated microglia in corpus callosum; (7) GFAP (glial fibrillary acidic protein) immunostaining to visualize and quantify astrocytes in corpus callosum To assess astroglial activation; and (8) 3D-electron microscopy in corpus callosum to assess ratio of myelinated and non-myelinated axons, internodal length, G-ratio, mitochondrial changes, etc.
The animals (8 week-old male C57BL/6J mice) are subjected to cuprizone diet plus rapamycin injections (CR) for 12 weeks to induce demyelination in white matter (CC, corpus callosum). After 12 weeks, CR is discontinued and subsets of animals are treated daily for 6 weeks with one of the following treatment regimens:
All animals are sacrificed after 12 weeks of CR (Group 7) or after further 6 weeks of treatment (Groups 1-6) to evaluate myelin in white matter (corpus callosum) and gray matter (hippocampus and cortex). In addition, the size of myelinated axons are quantified and the large myelinated axons are further assessed by 3D-electron microscopy (3D-EM).
A total of 92 mice are included in the study. Eight week-old male C57BL/6J mice are placed on a rodent chow (Harlan) containing 0.3% cuprizone for 12 weeks. These mice are also injected with rapamycin (approximately 10 mg/kg body weight at the volume of 0.1 ml, IP) daily for 12 weeks. Eight mice are maintained on a normal diet. The weight of the animals is monitored on a weekly-basis.
The drug is reconstituted in vehicle (DMSO/PBS/Tween) and fresh drug is made up once a week and administered orally once daily. […] Similarly, subgroups (n=12) of CR treated mice are treated with oral IRX4204EE and subcutaneous thyroxine vehicle (Group 5) or oral IRX4204EE and subcutaneous thyroxine (Group 6) at the indicated doses.
Epon-PPD stained sections of corpus callosum are evaluated in bright field at 10X, 20X and 63X (oil objective). A total of 4 images (63X) per animal are collected in the region of interest (ROI), which is a specific region between the rostral corpus callosum and the junction of the fornix. The images outside the ROI are not scored. The images are then evaluated using NIH ImageJ (aka. Fiji) to identify and count myelinated axons in the region of interest. The numbers of PPD-stained myelinated axons in all of the counting boxes for each image are counted. Using the polygon selection tool, the margins of the corpus callosum in each slice are identified and ImageJ is then used to calculate the total area of the CC in that slice. The total number of myelinated axons in a specific area of the corpus callosum is then calculated by dividing the total area of the CC by the total area of the counting boxes and multiplying by the combined number of myelinated axons that are counted in all of the counting boxes for each image. […]

RARα = biological target: T1, RARα (Homo sapiens, UniProt P10276); assay: RAR transactivation assay (ER-RAR fusion, ERE-tk-Luc reporter, CV-1 cells); format: cell-based
T1 construct: expressed in transfected cells; host or cells: CV-1
Excerpt: Data are mean values ± SE from five independent experiments.

[2] = system: demyelinated caudal cerebellar peduncles of one year old rats; assay: Focal toxin (ethidium bromide) induced rat model of demyelination; format: in vivo
Method: The experiment uses rats of relatively advanced age (1 year) since such rats undergo remyelination in a less efficient manner, thereby providing data that are more relevant to the clinical treatment of human patients with multiple sclerosis or other demyelination disorders.
Focal demyelination is induced in one year old rats (approximately 300 g in weight) by injecting stereotactically 5 µl of ethidium bromide solution (0.01% vol/vol in saline) in a bilateral manner into the caudal cerebellar peduncles (CCP). […] The rats are killed on day 24 post-ethidium bromide treatment for analysis of remyelination by quantitative polymerase chain reaction (qPCR) and microscopy.

[3] = system: oligodendrocyte precursor cells (OPCs); assay: Oligodendrocyte precursor cell differentiation (PLP-EGFP OPCs); format: cell-based, mouse; conditions: for OPC differentiation into oligodendrocytes (EGFP positive cells): compared to negative control (DMSO)
Excerpt: OPCs were generated from a neurosphere culture of E14.5 PLP-EGFP (on C57BL/6J background) mouse brains. […] The EGFP expressing cells were quantified with Cellomics Neuronal Profiling Algorithm.
The EGFP expressing cells in controls and all compounds were quantified with Cellomics Neuronal Profiling Algorithm.

LXRα/RXR = assay: Permissive heterodimer transactivation assay, CV-1 cells, 3x(PLTP/LXRE)-tk-Luc; format: cell-based; conditions: 20 hr, luciferase vs T0901317
Excerpt: (§1) For PPARy: CV-1 cells were transfected with 3x(rAOX/DR1)-tk-Luc reporter gene and an expression vector for PPARy. For FXR:CV-1 cells were transfected with 3x(IBABP/IRI)-tk-Luc reporter gene and vectors for FXR and RXRα. For LXR:CV-1 cells were transfected with 3x(PLTP/LXRE)-tk-Luc reporter gene with vectors for LXRα or LXRβ. For Nurr1: COS7 cells were transfected with 3xNBRE-tk-luc reporter gene and full length Nurr-1 with or without full-length RXRα plasmid. […] Luciferase data were normalized to co-transfected β-gal activity. Luciferase activity was expressed as percent of maximal activity obtained using specific agonists. Rosiglitazone (PPARy), GW4064 (FXR), T0901317 (LXR).

LXRβ/RXR = assay: as above; format: cell-based; conditions: 20 hr, luciferase vs T0901317
Excerpt: as §1

breast cancer cells = assay: Proliferation of breast cancer cells in vitro; format: cell-based
[4] = 10 mg/kg/day oral gavage, day 7 to day 21

T1 sequence (P10276 183-417 limits assumed, species assumed): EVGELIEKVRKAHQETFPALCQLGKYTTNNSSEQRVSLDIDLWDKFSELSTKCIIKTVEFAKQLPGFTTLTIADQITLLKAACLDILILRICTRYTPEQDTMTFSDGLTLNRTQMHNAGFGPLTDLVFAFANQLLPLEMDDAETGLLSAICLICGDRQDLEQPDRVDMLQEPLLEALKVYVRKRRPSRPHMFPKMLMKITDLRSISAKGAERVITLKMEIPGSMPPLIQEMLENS

## CC(/C=C/[C@@H]1C[C@]1(C)c1ccc2c(c1)C(C)(C)CCC2(C)C)=C\C(=O)O [IRX4204, 3,7-dimethyl-6(S),7(S)-methano,7-[1,1,4,4-tetramethyl-1,2,3,4-tetrahydronaphth-7-yl]2(E),4(E) heptadienoic acid]
[1]
  # of Myelinated Axons per CC unit (PPD staining, corpus callosum): 1570
  % Area of Myelin Cortex (PLP staining): 48%
  % Area of Myelin Hippocampus (PLP staining): 38%
[1]; then 6 weeks treatment
  average diameter of myelinated axons: approximately 0.9 µm
  increase in myelin volume compared to vehicles control: approximately 15%
RARα
  EC10 with RARα: about 300 nM
[2]; [4]
  Mbp expression (real-time qPCR of lesion samples): increase in Mbp expression
  Nkx2.2+ oligodendrocyte precursor cells (OPCs) in lesions: increased
  Pdgfra expression (real-time qPCR of lesion samples): increase in Pdgfra expression
  density of CC1+ differentiated oligodendrocytes in lesions: increased
  density of Olig2+ oligodendrocyte lineage cells in lesions: increased
  remyelinated axons (ultrastructural analysis of CCP lesions): more remyelinated axons
[3]; all tested concentrations but the lowest concentration (1^-6 µM)
  OPC differentiation into oligodendrocytes by concentration: significant increase in OPC differentiation
[3]; compared to controls
  total cell number and pyknotic cells: did not show any differences
[3]
  OPC differentiation into oligodendrocytes (EGFP positive cells): promotes OPC differentiation
LXRα/RXR
  activation of LXRα/RXR heterodimer: not to transactivate; also recorded: does not activate
LXRβ/RXR
  activation of LXRβ/RXR heterodimer: not to transactivate; also recorded: does not activate
Breast cancer cells; 10 nM
  inhibition of proliferation of breast cancer cells: observably inhibit the proliferation
Breast cancer cells; 100 nM
  inhibition of proliferation of breast cancer cells: substantial improvement in effectiveness

## CCOC(=O)/C=C(C)/C=C/[C@@H]1C[C@]1(C)c1ccc2c(c1)C(C)(C)CCC2(C)C [IRX4204EE, 3,7-dimethyl-6(S),7(S)-methano,7-[1,1,4,4-tetramethyl-1,2,3,4-tetrahydronaphth-7-yl]2(E),4(E) heptadienoic ethyl ester]
[1]
  # of Myelinated Axons per CC unit (PPD staining, corpus callosum): 4300
  % Area of Myelin Cortex (PLP staining): 85%
  % Area of Myelin Hippocampus (PLP staining): 68%
[1]; then 6 weeks treatment
  increase in myelin volume compared to vehicles control: approximately 25%
  remyelination and neuroprotection activity relative to IRX4204 groups: greater remyelination and neuroprotection activity than the corresponding IRX4204 treated groups
RARα; CV-1 cells, 20 hours, luciferase activity
  EC50: > 1000 nM
[2]; rat, in vivo
  activity in focal toxin rat model relative to IRX4204 (same end-points): somewhat more active than the free acid
[3]
  OPC differentiation into oligodendrocytes (EGFP positive cells): essentially no activity; also recorded: considerably less active
LXRα/RXR
  activation of LXRα/RXR heterodimer: very little activity
LXRβ/RXR
  activation of LXRβ/RXR heterodimer: very little activity
